“Also recorded” adds a separate entry of the source.
Experiments:
[1] = system: subjects with impaired glucose metabolism; conditions: 26 weeks; cited from earlier work
[2] = system: C57BL/6J diet-induced obese (DIO) mice; conditions: cited from earlier work
prediabetes patients = conditions: cited from earlier work
[3] = system: male Sprague Dawley rats fed with High fructose diet or High fat diet (HFD); conditions: rat, in vivo; cited from earlier work
[4] = clinical study; cited from earlier work
obese patients with T2DM = conditions: translational preclinical models and obese patients with T2DM; cited from earlier work
C57BL/6J obese mice [5] = conditions: cited from earlier work
C57BL/6J obese mice [6] = conditions: cited from earlier work; remark: listed apart in the source
C57BL/6J mice = conditions: mouse, in vivo; cited from earlier work
C57BL/6J DIO mice = conditions: Metformin alone (150 mg/Kg/day), 29-day study
From the text: Age and weight-matched C57BL/6J lean and DIO male mice were obtained from Jackson Labs (Bar Harbor, Me.). C57BL/6J DIO mice were fed high-fat diet (HFD) for 16 weeks to induce hepatic insulin resistance and pancreatic beta cell dysfunction. […] Lean control mice were maintained on D12450B (10% Kcal fat) Chow diet and DIO animals were maintained D12492 (60% KCal fat) research diets. Tap water was available ad libitum during the study. Animals were acclimated for a week. […] Test articles or the drugs were reconstituted in DMSO and 0.5% Methyl cellulose was used as the vehicle.
In a 29-day study, sub-maximal dose of Metformin (150 mg/Kg/day) and sub-maximal doses of Celecoxib (10 mg/Kg/day or 20 mg/Kg/day) were administered together or the vehicle was administered as an oral gavage in the morning and a sub-hypertensive dose of Valsartan (2 mg/Kg/day) or the vehicle was administered 6 hours later. Non-fasting BG measurements will be taken on Days 1, 15, 22, and 29. Animals were transferred to clean cages, food and water were uninterrupted. A blood sample was collected via tail nick and blood glucose was assessed using a hand-held Glucometer. Body weights were determined twice weekly for the duration of the study period.

[7] = system: C57BL/6J diet-induced obese (DIO) mice; conditions: cited from earlier work; remark: listed apart in the source
pancreatic beta cells = conditions: cited from earlier work

For `CCCCC(=O)N(Cc1ccc(-c2ccccc2-c2nnn[nH]2)cc1)[C@H](C(=O)O)C(C)C` [Valsartan], the “beta cells function and insulin sensitivity” value [1] is given as “improved”, the systolic blood pressure ([2]; 1 mg/Kg/day, C57BL/6J obese mice) is given as “no effect” and the glucose tolerance ([2]; overnight fast, IP 2 g/Kg glucose) is given as “improves”. The impaired glucose tolerance ([2]; sub-hypertensive dose 1 mg/Kg/day, C57BL/6J obese mice) was “improves” and the “onset of Type II diabetes” value (prediabetes patients) was “delay the onset”.
In the case of `CS(=O)(=O)Nc1ccc([N+](=O)[O-])cc1Oc1ccccc1` [Mesulid], the insulin sensitivity [3] is given as “restore”, the low-grade inflammation [3] is given as “reverse” and the oxidative stress [3] is given as “reduce”.
In the case of `O=C(Oc1ccccc1C(=O)O)c1ccccc1O` [Salsalate], the “reduction of glycosylated hemoglobin A1c, average” value [4] is listed as 0.37% and the systemic insulin sensitivity (obese patients with T2DM) is listed as “restore”.
In the case of `NS(=O)(=O)c1ccc(-n2nc(C(F)(F)F)cc2-c2ccc(Cl)cc2)cc1` [SC58236], the “glucose tolerance (IPGTT)” value (C57BL/6J obese mice [5]; 6 hour fast, glucose 2 g/Kg) is listed as “improves”, the plasma insulin levels (C57BL/6J obese mice [5]; after glucose injection) is listed as “elevates” and the HbA1c levels (C57BL/6J obese mice [6]; C57BL/6J obese mice) is listed as “reduces”. For the same molecule, the “reduction of HbA1c levels” value (C57BL/6J obese mice [6]; selective Cox-2 inhibition) was “about 0.4%”.
For `COc1ccc2c(c1)c(CC(=O)O)c(C)n2C(=O)c1ccc(Cl)cc1` [Indomethacin], the “HFD-induced obesity and insulin resistance” value (C57BL/6J mice) is given as “prevented”.
For `CN(C)C(=N)N=C(N)N` [Metformin], the “elevated non-fasting BG levels” value (C57BL/6J DIO mice) is given as “actually enhanced; also recorded: did not suppress”, the “glucose tolerance (OGTT)” value ([7]; 2 g/Kg glucose after 20 hour fast, 0.25% and 0.5% Metformin = 150 and 300 mg/Kg/day) is given as “improves” and the HFD-induced insulin resistance ([7]; C57BL/6J DIO model) is given as “ameliorates”.
For `CS(=O)(=O)Nc1ccc([N+](=O)[O-])cc1OC1CCCCC1` [NS-398], the beta cell dysfunction (pancreatic beta cells) is given as “reverses”.
